The values that follow come from ChEMBL document CHEMBL5729193, “Aromatic vinyl or aromatic ethyl derivative, preparation method therefor, intermediate, pharmaceutical composition, and application” (2022).

This assay deals with Programmed cell death protein 1/Programmed cell death 1 ligand 1 (Homo sapiens, UniProt Q15116+Q9NZQ7). Kind of assay: Homogenouse Time-Resolved Fluorescence (HTRF) Binding Assay: Experimental Procedure1. The compound was formulated to 10 concentrations with a three-fold concentration gradient with 100% DMSO.2. The solution of the compound in DMSO was added to Dilute Buffer, and mixed evenly and then transferred to a 96-well plate.3. PD-L1 was diluted with Dilute Buffer and added to the 96-well plate above.4. PD-1 was diluted with Dilute Buffer, then added to the 96-well plate above and incubated at room temperature for 30 minutes.5. One portion of anti-tag1-Eu and one portion of anti-tag2-XL665 were added to Detection Buffer, mixed evenly and transferred to the 96-well plate above.6. The mixed solution in the 96-well plate were incubated at room temperature for 1 to 24 hours.7. HTRF values were read by Envision. In kind it is protein-complex assay. (TR-FRET usually uses a lanthanide donor and a delayed reading to cut background.)
Sequence of Programmed cell death protein 1/Programmed cell death 1 ligand 1 (Q15116 whole entry): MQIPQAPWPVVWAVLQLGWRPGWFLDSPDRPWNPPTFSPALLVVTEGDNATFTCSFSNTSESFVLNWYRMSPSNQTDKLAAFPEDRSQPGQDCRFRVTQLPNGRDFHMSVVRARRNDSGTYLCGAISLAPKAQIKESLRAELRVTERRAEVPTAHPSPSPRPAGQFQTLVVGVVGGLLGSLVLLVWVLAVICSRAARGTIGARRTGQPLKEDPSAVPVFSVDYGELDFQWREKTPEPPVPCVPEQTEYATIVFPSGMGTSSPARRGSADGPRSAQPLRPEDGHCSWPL
Sequence of Programmed cell death protein 1/Programmed cell death 1 ligand 1 (Q9NZQ7 whole entry): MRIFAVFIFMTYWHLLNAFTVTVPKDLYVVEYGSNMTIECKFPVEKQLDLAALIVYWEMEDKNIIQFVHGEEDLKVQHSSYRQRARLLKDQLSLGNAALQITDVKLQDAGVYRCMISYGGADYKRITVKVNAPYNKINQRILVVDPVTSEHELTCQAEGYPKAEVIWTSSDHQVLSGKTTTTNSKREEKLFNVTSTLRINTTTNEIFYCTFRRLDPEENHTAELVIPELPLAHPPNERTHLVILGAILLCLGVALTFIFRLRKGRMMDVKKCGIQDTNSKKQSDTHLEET
In general, IC50 refers to the concentration that gives 50% inhibition. The low end stands for higher potency, the high end for lower potency. Turning to `Cc1c(CCc2cc(CNC(C)C(=O)O)ccc2C(F)(F)F)cccc1-c1ccccc1` (configuration not stated), the IC50 was 44 nM.

Take `Cc1c(CCc2cc(CNC(C)(CO)C(=O)O)ccc2C(F)(F)F)cccc1-c1ccccc1` (configuration not stated): the IC50 was determined as 85 nM. Next, `Cc1c(/C=C/c2cc(C(C)NCC(=O)O)ccc2C(F)(F)F)cccc1-c1ccccc1` (configuration not stated): 24 nM; `Cc1c(/C=C/c2cc(CNC(CO)C(=O)O)ccc2C(F)(F)F)cccc1-c1ccc2c(c1)OCCO2` (configuration not stated): 14 nM. Next, `Cc1c(/C=C/c2cc(CN[C@@](C)(CO)C(=O)O)ccc2C(F)(F)F)cccc1-c1ccc2cn(C)nc2c1`: 880 nM. For `Cc1c(/C=C/c2cc(CN[C@@](C)(CO)C(=O)O)ccc2C(F)(F)F)cccc1-c1cccnc1` the value was 580 nM. Take `Cc1ccc(CNC(C)(CO)C(=O)O)cc1/C=C/c1cccc(-c2cccc(F)c2)c1C` (configuration not stated): the IC50 was found to be 57 nM. Against the preceding compound, the IC50 is about 10-fold lower. As for `Cc1c(/C=C/c2cc(CNC(C)(CO)C(=O)O)ccc2C(F)(F)F)cccc1-c1ccc(F)cc1` (configuration not stated), the IC50 came to 320 nM. In the case of `Cc1c(/C=C/c2cc(CNC(CO)C(=O)O)ccc2C(F)(F)F)cccc1-c1ccccc1F` (configuration not stated), the IC50 worked out at 13 nM. `Cc1c(/C=C/c2cc(CNC(C)(CO)C(=O)O)ccc2C(F)(F)F)cccc1-c1ccccc1F` (configuration not stated) registered an IC50 of 20 nM. `Cc1c(CCc2cc(CNC(CO)C(=O)O)ccc2C(F)(F)F)cccc1-c1ccccc1` (configuration not stated): the IC50 stood at 46 nM.

On to `Cc1c(/C=C/c2cc(CN[C@@](C)(CO)C(=O)O)ccc2C(F)(F)F)cccc1-c1cnccn1`, for which the IC50 is 540 nM. Consider `Cc1c(/C=C/c2cc(CN[C@@](C)(CO)C(=O)O)ccc2C(F)(F)F)cccc1-c1ccc2ncoc2c1`, for which the IC50 came out at 1100 nM. Compound `Cc1c(/C=C/c2cc(CN[C@@](C)(CO)C(=O)O)ccc2C(F)(F)F)cccc1-c1ccccn1` displayed an IC50 of 2200 nM. Compared with the last compound, the IC50 is about 2-fold higher. In the case of `COc1ccc(-c2cccc(/C=C/c3cc(CNC(C)(CO)C(=O)O)ccc3C)c2C)cc1` (configuration not stated), the IC50 came out at 3100 nM. For `Cc1c(/C=C/c2cc(CNC(C)(CO)C(=O)O)ccc2C(F)(F)F)cccc1-c1cccc(F)c1` (configuration not stated) the value was 46 nM; for `Cc1ccc(CNC(C)(CO)C(=O)O)cc1/C=C/c1cccc(-c2ccc(F)cc2)c1C` (configuration not stated), 1400 nM.
